In general, IC50 refers to the concentration needed to halve the response being measured.

The target of one experiment is T1, Recombinant human JAK1 catalytic domain (Homo sapiens, UniProt P23458).
T1 construct: Recombinant human JAK1 (catalytic domain, amino acids 866-1154; catalog number PV4774); purchased Invitrogen PV4774
T1 sequence (P23458 866-1154): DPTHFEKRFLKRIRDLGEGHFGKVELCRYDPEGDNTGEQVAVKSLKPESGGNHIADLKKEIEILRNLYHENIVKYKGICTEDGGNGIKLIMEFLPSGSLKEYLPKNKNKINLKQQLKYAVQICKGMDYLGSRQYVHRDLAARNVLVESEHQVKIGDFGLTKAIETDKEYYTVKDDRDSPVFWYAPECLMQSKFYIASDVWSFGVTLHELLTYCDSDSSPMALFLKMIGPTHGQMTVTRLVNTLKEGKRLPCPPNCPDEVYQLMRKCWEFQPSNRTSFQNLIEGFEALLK
The experiment is described as follows: JAK1 inhibition assay (polyGT substrate / Ulight-JAK1 peptide assay). The class given is biochemical. The conditions noted are these: Comparative Compounds (Table VI). The protocol: Recombinant human JAK1 catalytic domain (amino acids 850-1154; catalog number 08-144) was purchased from Carna Biosciences. 10 ng of JAK1 is incubated with 12.5 μg polyGT substrate (Sigma catalog number P0275) in kinase reaction buffer (15 mM Tris-HCl pH 7.5, 1 mM DTT, 0.01% Tween-20, 10 mM MgCl2, 2 μM non-radioactive ATP, 0.25 ρCi ^33P-gamma-ATP (GE Healthcare, catalog number AH9968) final concentrations) with or without 5 μL containing test compound or vehicle (DMSO, 1% final concentration), in a total volume of 25 μL, in a polypropylene 96-well plate (Greiner, V-bottom). After 45 min at 30° C., reactions are stopped by adding of 25 μL/well of 150 mM phosphoric acid. All of the terminated kinase reaction is transferred to prewashed (75 mM phosphoric acid) 96 well filter plates (Perkin Elmer catalog number 6005177) using a cell harvester (Perkin Elmer). Plates are washed 6 times with 300 μL per well of a 75 mM phosphoric acid solution and the bottom of the plates is sealed. 40 μL/well of Microscint-20 is added, the top of the plates is sealed and readout is performed using the Topcount (Perkin Elmer). Kinase activity is calculated by subtracting counts per min (cpm) obtained in the presence of a positive control inhibitor (10 μM staurosporine) from cpm obtained in the presence of vehicle. The ability of a test compound to inhibit this activity is determined as:
[formula] • RFU test compound=RFU determined for sample with test compound present • RFU control=RFU determined for sample with positive control inhibitor • RFU vehicle=RFU determined in the presence of vehicle
Dose dilution series are prepared for the compounds enabling the testing of dose-response effects in the JAK1 assay and the calculation of the IC50 for each compound. Each compound is routinely tested at concentration of 20 μM followed by a 1/3 serial dilution, 8 points (20 μM-6.67 μM-2.22 μM-740 nM-247 nM-82 nM-27 nM-9 nM) in a final concentration of 1% DMSO. When potency of compound series increased, more dilutions are prepared and/or the top concentration was lowered (e.g. 5 μM, 1 μM).
Recombinant human JAK1 (catalytic domain, amino acids 866-1154; catalog number PV4774) was purchased from Invitrogen. 1 ng of JAK1 was incubated with 20 nM Ulight-JAK1 (tyr1023) peptide (Perkin Elmer catalog number TRF0121) in kinase reaction buffer (25 mM MOPS pH6.8, 0.01% Brij-35, 5 mM MgCl2, 2 mM DTT, 7 μM ATP) with or without 4 μL containing test compound or vehicle (DMSO, 1% final concentration), in a total volume of 20 μL, in a white 384 Opti plate (Perkin Elmer, catalog number 6007290). After 60 min at room temperature, reactions were stopped by adding 20 μL/well of detection mixture (1× detection buffer (Perkin Elmer, catalog number CR97-100C), 0.5 nM Europium-anti-phosphotyrosine (PT66) (Perkin Elmer, catalog number AD0068), 10 mM EDTA). Readout is performed using the Envision with excitation at 320 nm and measuring emission at 615 nm (Perkin Elmer). Kinase activity was calculated by subtracting relative fluorescence units (RFU) obtained in the presence of a positive control inhibitor (10 μM staurosporine) from RFU obtained in the presence of vehicle. The ability of a test compound to inhibit this activity was determined as: Percentage inhibition=((RFU determined for sample with test compound present−RFU determined for sample with positive control inhibitor) divided by (RFU determined in the presence of vehicle−RFU determined for sample with positive control inhibitor))*100.
Dose dilution series were prepared for the compounds enabling the testing of dose-response effects in the JAK1 assay and the calculation of the IC50 for the compound. Each compound is routinely tested at concentration of 20 μM followed by a 1/5 serial dilution, 10 points in a final concentration of 1% DMSO. When potency of compound series increases, more dilutions are prepared and/or the top concentration are lowered (e.g. 5 μM, 1 μM). […]
For `CN(c1ccc2ncn(C)c2c1)c1ccc(C#N)cc1F` [C, 3-fluoro-4-[methyl-(3-methylbenzimidazol-5-yl)amino]benzonitrile, reference compound], the IC50 is above 500 nM.

Staying with this experiment, now noted: Illustrative Compounds of the invention (Table V).
Consider `CNC(=O)Nc1cc(Oc2cnc(C#N)cc2C)cc2c1ncn2C`, for which the IC50 is 0.1 to 50 nM.

Take `CCc1cc(C#N)cc(F)c1N(C)c1cc(NC(=O)[C@@H]2C[C@@H]2F)c2ncn(C)c2c1` (racemic) [Cpd 7, N-(6-((4-cyano-2-ethyl-6-fluorophenyl)(methyl)amino)-1-methyl-1H-benzo[d]imidazol-4-yl)-2-fluorocyclopropanecarboxamide (1S,2S)/(1R,2R) racemic mixture]: the half-inhibitory concentration (IC50) lay within 0.1 to 50 nM.

For `CCc1cc(C#N)ncc1N(C)c1cc(NC(=O)C2CC2)c2ncn(C)c2c1` [Cpd 1, N-(6-((6-cyano-4-ethylpyridin-3-yl)(methyl)amino)-1-methyl-1H-benzo[d]imidazol-4-yl)cyclopropanecarboxamide], the concentration for half-maximal inhibition (IC50) is 0.1 to 50 nM.

With `CCc1cc(C#N)cc(F)c1Nc1cc(NC(=O)C2CC2)c2ncn(C)c2c1` [Cpd 2, N-(6-(4-cyano-2-ethyl-6-fluorophenylamino)-1-methyl-1H-benzo[d]imidazol-4-yl)cyclopropanecarboxamide], the IC50 is 0.1 to 50 nM. For `CCc1cc(C#N)cc(F)c1N(C)c1cc(NC(=O)C2CC2)c2ncn(C)c2c1` [Cpd 3, N-(6-((4-cyano-2-ethyl-6-fluorophenyl)(methyl)amino)-1-methyl-1H-benzo[d]imidazol-4-yl)cyclopropanecarboxamide], the 50% inhibitory concentration (IC50) fell in the range of 0.1 to 50 nM.

For `CCc1cc(C#N)ncc1N(C)c1cc(NC(=O)OC)c2ncn(C)c2c1` [Cpd 4, methyl 6-((6-cyano-4-ethylpyridin-3-yl)(methyl)amino)-1-methyl-1H-benzo[d]imidazol-4-ylcarbamate], the 50% inhibitory concentration (IC50) lay within 0.1 to 50 nM. On the same count and under the same terms, for `CCc1cc(C#N)cc(F)c1N(C)c1cc(NC(=O)OC)c2ncn(C)c2c1` [Cpd 5, methyl 6-((4-cyano-2-ethyl-6-fluorophenyl)(methyl)amino)-1-methyl-1H-benzo[d]imidazol-4-ylcarbamate] the value was 0.1 to 50 nM; for `CCc1cc(C#N)ncc1Oc1cc(NC(=O)[C@H]2C[C@H]2F)c2ncn(C)c2c1` [Cpd 6, (1R,2R)-N-[6-[(6-cyano-4-ethyl-3-pyridyl)oxy]-1-methyl-benzimidazol-4-yl]-2-fluoro-cyclopropanecarboxamide], 0.1 to 50 nM; for `CCc1cc(C#N)ncc1N(C)c1cc(NC(=O)[C@H]2C[C@H]2F)c2ncn(C)c2c1` [Cpd 8, (1R,2R)-N-(6-((6-cyano-4-ethylpyridin-3-yl)(methyl)amino)-1-methyl-1H-benzo[d]imidazol-4-yl)-2-fluorocyclopropanecarboxamide], 0.1 to 50 nM. Still for that read-out and setting: for `Cc1cc(C#N)ncc1N(C)c1cc(NC(=O)[C@H]2C[C@H]2F)c2ncn(C)c2c1` [Cpd 9, (1R,2R)-N-(6-((6-cyano-4-methylpyridin-3-yl)(methyl)amino)-1-methyl-1H-benzo[d]imidazol-4-yl)-2-fluorocyclopropanecarboxamide] the value was 0.1 to 50 nM; for `CCc1cc(C#N)ccc1Oc1cc(NC(=O)[C@H]2C[C@H]2F)c2ncn(C)c2c1` [Cpd 10, (1R,2R)-N-[6-(4-cyano-2-ethyl-phenoxy)-1-methyl-benzimidazol-4-yl]-2-fluoro-cyclopropanecarboxamide], 0.1 to 50 nM. The same measure, in the same setting: next, `CN(c1cc(NC(=O)[C@H]2C[C@H]2F)c2ncn(C)c2c1)c1c(F)cc(C#N)cc1Cl` [Cpd 11, (1R,2R)-N-[6-(2-chloro-4-cyano-6-fluoro-N-methyl-anilino)-1-methyl-benzimidazol-4-yl]-2-fluoro-cyclopropanecarboxamide]: 0.1 to 50 nM. As for `Cc1cc(F)ncc1N(C)c1cc(NC(=O)[C@H]2C[C@H]2F)c2ncn(C)c2c1` [Cpd 12, (1R,2R)-2-fluoro-N-[6-[(6-fluoro-4-methyl-3-pyridyl)-methyl-amino]-1-methyl-benzimidazol-4-yl]cyclopropanecarboxamide], the IC50 lay within 0.1 to 50 nM. The same measure, in the same setting: for `CN(c1cc(NC(=O)[C@H]2C[C@H]2F)c2ncn(C)c2c1)c1ccc(F)nc1F` [Cpd 13, (1R,2R)-N-[6-[(2,6-difluoro-3-pyridyl)-methyl-amino]-1-methyl-benzimidazol-4-yl]-2-fluoro-cyclopropanecarboxamide] the value was 50 to 100 nM; for `CN(c1cc(NC(=O)[C@H]2C[C@H]2F)c2ncn(C)c2c1)c1ccc(C#N)nc1F` [Cpd 14, (1R,2R)-N-[6-[(6-cyano-2-fluoro-3-pyridyl)-methyl-amino]-1-methyl-benzimidazol-4-yl]-2-fluoro-cyclopropanecarboxamide], 0.1 to 50 nM; for `CN(c1cc(NC(=O)[C@H]2C[C@H]2F)c2ncn(C)c2c1)c1ccc(C#N)cc1F` [Cpd 15, (1R,2R)-N-[6-(4-cyano-2-fluoro-N-methyl-anilino)-1-methyl-benzimidazol-4-yl]-2-fluoro-cyclopropanecarboxamide], 0.1 to 50 nM.

Take `Cc1cc(S(C)(=O)=O)cc(F)c1N(C)c1cc(NC(=O)[C@H]2C[C@H]2F)c2ncn(C)c2c1` [Cpd 16, (1R,2R)-2-fluoro-N-[6-(2-fluoro-N,6-dimethyl-4-methylsulfonyl-anilino)-1-methyl-benzimidazol-4-yl]cyclopropanecarboxamide]: the IC50 lay in the range of 0.1 to 50 nM. The same measure, in the same setting: for `CN(c1cc(NC(=O)[C@H]2C[C@H]2F)c2ncn(C)c2c1)c1ccc(S(C)(=O)=O)cc1F` [Cpd 17, (1R,2R)-2-fluoro-N-[6-(2-fluoro-N-methyl-4-methylsulfonyl-anilino)-1-methyl-benzimidazol-4-yl]cyclopropanecarboxamide] the value was 100 to 500 nM; for `CCc1cc(S(C)(=O)=O)ncc1N(C)c1cc(NC(=O)C2CC2)c2ncn(C)c2c1` [Cpd 18, N-[6-[(4-ethyl-6-methylsulfonyl-3-pyridyl)-methyl-amino]-1-methyl-benzimidazol-4-yl]cyclopropanecarboxamide], 0.1 to 50 nM. Still for that read-out and setting: for `Cc1cc(S(C)(=O)=O)cc(F)c1N(C)c1cc(NC(=O)C2CC2)c2ncn(C)c2c1` [Cpd 19, N-[6-(2-fluoro-N,6-dimethyl-4-methylsulfonyl-anilino)-1-methyl-benzimidazol-4-yl]cyclopropanecarboxamide] the value was 0.1 to 50 nM; for `Cc1cc(C#N)ncc1Oc1cc(NC(=O)[C@H]2C[C@H]2F)c2ncn(C)c2c1` [Cpd 20, (1R,2R)-N-[6-[(6-cyano-4-methyl-3-pyridyl)oxy]-1-methyl-benzimidazol-4-yl]-2-fluoro-cyclopropanecarboxamide], 0.1 to 50 nM; for `Cc1cc(C#N)nc(F)c1N(C)c1cc(NC(=O)[C@H]2C[C@H]2F)c2ncn(C)c2c1` [Cpd 21, (1R,2R)-N-[6-[(6-cyano-2-fluoro-4-methyl-3-pyridyl)-methyl-amino]-1-methyl-benzimidazol-4-yl]-2-fluoro-cyclopropanecarboxamide], 0.1 to 50 nM.

On to `Cc1cnc(C#N)c(F)c1N(C)c1cc(NC(=O)[C@H]2C[C@H]2F)c2ncn(C)c2c1` [Cpd 22, (1R,2R)-N-[6-[(2-cyano-3-fluoro-5-methyl-4-pyridyl)-methyl-amino]-1-methyl-benzimidazol-4-yl]-2-fluoro-cyclopropanecarboxamide], for which the IC50 was 0.1 to 50 nM. On to `Cc1cc(C#N)ncc1Oc1cc(NC(=O)C2CC2)c2ncn(C)c2c1` [Cpd 23, N-[6-[(6-cyano-4-methyl-3-pyridyl)oxy]-1-methyl-benzimidazol-4-yl]cyclopropanecarboxamide], for which the half-inhibitory concentration (IC50) fell in the range of 0.1 to 50 nM.

These data come from patent US10179771B2 (GALAPAGOS NV, priority 2014, dated 2019).
